Reference: ChEMBL document CHEMBL1201862, “PubChem BioAssay data set” (2004)
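Cells were grown in 96-well plates and exposed to each compound for 48 hours at five concentrations; endpoints were interpolated linearly between bracketing concentrations, or set to the highest concentration if not reached. GI50 marks 50% less growth.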 Calls of active or inactive are those of the source. Cut-off read from the data, not from the text of the source: active = GI50 up to about 1.1 µM and inactive = higher.

What was measured:
Experiment in all cases: NCI anticancer screen, dose series, 48 h
NCI-H522 = tested on: NCI-H522
SK-MEL-5 = tested on: SK-MEL-5
OVCAR-4 = tested on: OVCAR-4
A498 = tested on: A498
SN12C = tested on: SN12C
HCC 2998 = tested on: HCC 2998
786-0 = tested on: 786-0
CAKI-1 = tested on: CAKI-1
OVCAR-8 = tested on: OVCAR-8
LOX IMVI = tested on: LOX IMVI
SNB-75 = tested on: SNB-75
SF-268 = tested on: SF-268
ACHN = tested on: ACHN
Malme-3M = tested on: Malme-3M
HT-29 = tested on: HT-29
SK-OV-3 = tested on: SK-OV-3
RXF 393 = tested on: RXF 393

Measured: GI50

CC(C)OP(=O)(OC(C)C)/C(Cl)=N/Nc1ccc([N+](=O)[O-])cc1
inactive: NCI-H522 > 100 µM | SK-MEL-5 > 100 µM | OVCAR-4 > 100 µM | A498 24 µM | SN12C > 100 µM | HCC 2998 > 100 µM | 786-0 > 100 µM | CAKI-1 97.3 µM | OVCAR-8 > 100 µM | LOX IMVI 44.9 µM | SNB-75 > 100 µM | SF-268 > 100 µM | ACHN > 100 µM | Malme-3M > 100 µM

O=C1CCNC/C1=C\c1ccccc1
inactive: NCI-H522 11.3 µM | SK-MEL-5 20.3 µM | OVCAR-4 15.9 µM | A498 > 100 µM | SN12C 34.5 µM | HCC 2998 20.1 µM | HT-29 15.6 µM | 786-0 15.6 µM | CAKI-1 44.8 µM | OVCAR-8 22.2 µM | LOX IMVI 16.8 µM | SNB-75 37.8 µM | SF-268 19.6 µM | ACHN 22.9 µM | SK-OV-3 55 µM

COc1ccc(/C=N/N=C(\N)NO)c(OC)c1
inactive: NCI-H522 > 10 µM | RXF 393 54 µM | SK-MEL-5 59.8 µM | OVCAR-4 > 100 µM | SN12C 67.8 µM | HCC 2998 12.2 µM | 786-0 57.5 µM | CAKI-1 19.2 µM | OVCAR-8 61 µM | LOX IMVI 24.7 µM | SF-268 48.3 µM | ACHN 21 µM | SK-OV-3 75.2 µM | Malme-3M 68.7 µM

CC1=CP(=O)(c2ccccc2)C=C(C)C1=C(Cl)Cl (stereo not drawn)
inactive: NCI-H522 2.6 µM | RXF 393 16.9 µM | SK-MEL-5 4.67 µM | OVCAR-4 12.9 µM | SN12C 15.6 µM | HCC 2998 15 µM | HT-29 3.55 µM | 786-0 4.1 µM | OVCAR-8 10.9 µM | LOX IMVI 4.05 µM | SNB-75 4.83 µM | SF-268 3.98 µM | SK-OV-3 29.4 µM

COc1cc2c(cc1OC)-c1c(cc(OC)c(OC)c1OC)C2=O
inactive: NCI-H522 49 µM | RXF 393 > 100 µM | SK-MEL-5 77.1 µM | SN12C > 100 µM | HCC 2998 > 100 µM | HT-29 > 100 µM | 786-0 > 100 µM | OVCAR-8 > 100 µM | LOX IMVI > 100 µM | SNB-75 18.2 µM | SF-268 > 100 µM | ACHN > 100 µM | SK-OV-3 93.3 µM | Malme-3M > 100 µM

Cc1cc(C(=O)N2CCN(Cc3ccccc3)CC2)c(C)o1
inactive: NCI-H522 > 100 µM | SK-MEL-5 > 100 µM | OVCAR-4 > 100 µM | A498 > 100 µM | SN12C > 100 µM | HCC 2998 > 100 µM | HT-29 > 100 µM | 786-0 > 100 µM | CAKI-1 > 100 µM | OVCAR-8 > 100 µM | LOX IMVI > 100 µM | SNB-75 > 100 µM | SF-268 > 100 µM | ACHN > 100 µM | SK-OV-3 > 100 µM

COc1cc(O)c2c(c1)O[C@@H]1OCC[C@H]21
inactive: SK-MEL-5 > 100 µM | OVCAR-4 > 100 µM | A498 > 100 µM | SN12C > 100 µM | HCC 2998 > 100 µM | HT-29 > 100 µM | 786-0 > 100 µM | OVCAR-8 > 100 µM | LOX IMVI > 100 µM | SNB-75 > 100 µM | ACHN > 100 µM | SK-OV-3 > 100 µM | Malme-3M > 100 µM

COC(=O)C1CSC(c2csc(CCN)n2)=N1 (stereo not drawn)
inactive: NCI-H522 > 100 µM | RXF 393 > 100 µM | SK-MEL-5 > 100 µM | OVCAR-4 > 100 µM | SN12C > 100 µM | HCC 2998 > 100 µM | HT-29 > 100 µM | 786-0 > 100 µM | CAKI-1 > 100 µM | OVCAR-8 > 100 µM | LOX IMVI > 100 µM | SNB-75 > 100 µM | ACHN > 100 µM | SK-OV-3 > 100 µM | Malme-3M > 100 µM

CCOC(=O)NC(=O)c1cn(C2CCCCC2)c(=O)[nH]c1=O
inactive: NCI-H522 > 100 µM | OVCAR-4 67.6 µM | A498 85.3 µM | SN12C > 100 µM | HCC 2998 53.6 µM | HT-29 6.67 µM | 786-0 24.7 µM | CAKI-1 > 100 µM | OVCAR-8 > 100 µM | LOX IMVI 9.75 µM | SF-268 > 100 µM | ACHN 35.6 µM | SK-OV-3 77.3 µM | Malme-3M > 100 µM

NC(=S)NNc1c([N+](=O)[O-])cnn(-c2ccccc2)c1=O
inactive: NCI-H522 18.7 µM | RXF 393 18.5 µM | SK-MEL-5 18.7 µM | OVCAR-4 17.4 µM | SN12C 17.1 µM | HCC 2998 18.7 µM | HT-29 18 µM | 786-0 20.3 µM | CAKI-1 19.6 µM | OVCAR-8 14.5 µM | LOX IMVI 10.3 µM | SNB-75 19.4 µM | SF-268 21.1 µM | ACHN 18.7 µM | SK-OV-3 21.6 µM | Malme-3M 19.2 µM

CCOC(=O)C(=O)Nc1nc2ccc(OC)cc2s1
inactive: NCI-H522 > 10 µM | SK-MEL-5 > 100 µM | OVCAR-4 > 100 µM | A498 > 100 µM | SN12C > 100 µM | HCC 2998 > 100 µM | HT-29 > 100 µM | 786-0 > 100 µM | CAKI-1 > 100 µM | OVCAR-8 > 100 µM | LOX IMVI > 100 µM | SNB-75 > 100 µM | SF-268 > 100 µM | ACHN > 100 µM | SK-OV-3 > 100 µM | Malme-3M > 100 µM

c1c[nH]c(Cc2nc(Cc3c[nH]cn3)c[nH]2)n1
inactive: NCI-H522 12.2 µM | SK-MEL-5 20.7 µM | OVCAR-4 4.45 µM | A498 9.79 µM | SN12C 29.6 µM | HCC 2998 2.74 µM | HT-29 4.12 µM | 786-0 11.7 µM | CAKI-1 27.9 µM | OVCAR-8 33.5 µM | LOX IMVI 16.5 µM | SNB-75 35.6 µM | SF-268 4.65 µM | ACHN 3.51 µM | SK-OV-3 9.29 µM | Malme-3M 5.07 µM

CC1(C)COC(C2(C)C(=O)C=C(c3ccccc3)c3ccccc32)=N1 (stereo not drawn)
inactive: NCI-H522 35.5 µM | RXF 393 55.3 µM | SK-MEL-5 > 100 µM | OVCAR-4 34.8 µM | SN12C 30.5 µM | HT-29 30.5 µM | 786-0 59.8 µM | CAKI-1 42.6 µM | OVCAR-8 46.8 µM | SNB-75 33.4 µM | SF-268 58.2 µM | ACHN 34.9 µM | SK-OV-3 22.4 µM | Malme-3M 11.5 µM

Clc1cc2nc[nH]c2cc1Cl
inactive: OVCAR-4 > 100 µM | A498 15.7 µM | SN12C > 100 µM | HCC 2998 > 100 µM | HT-29 > 100 µM | 786-0 > 100 µM | CAKI-1 > 100 µM | OVCAR-8 > 100 µM | LOX IMVI > 100 µM | SNB-75 18.3 µM | SF-268 > 100 µM | ACHN > 100 µM | SK-OV-3 > 100 µM | Malme-3M > 100 µM
